Data on one compound can be found in patent US20170165259A1, “COMBINED MODULATION OF IRE1” (THE REGENTS OF THE UNIVERSITY OF CALIFORNIA, priority 2014, published 2017).

What all share (format): cell-based, rat
For assay [1], the system named is endogenous IRE1α. Description: IRE1α auto-phosphorylation immunoblot in INS-1 cells under ER stress. Particulars: ER stress (Tg). Here is the method: (§1) FIGS. 5A-5E. […] (FIG. 5C) EtBr-stained agarose gel of XBP1 complementary DNA (cDNA) amplicons from the INS-1 cells described in (B).
(§2) To further explore how IRE1α modulators affect the kinase and RNase activities of endogenous IRE1α under ER stress, in vivo studies using INS-1 rat insulinoma cell lines, which are derived from insulin-producing pancreatic β-cell tumors and contain large well-developed ERs, were conducted.
For protein analysis, cells were lysed in M-PER buffer (Thermo Scientific) plus complete EDTA-free protease inhibitor (Roche) and phosphatase inhibitor cocktail (Sigma). The concentration of samples was determined using BCA Protein Assay (Thermo). […] Gels were run using MES buffer and transferred onto nitrocellulose transfer membrane using an XCell II™ Blot Module. Blocking, antibody incubation, and washing were done in PBS or TBS with 0.05% Tween-20 (v/v) and 5% (w/v) non-fat dry milk or BSA, or blocking buffer (Licor-Odyssey). Antibodies used were: mouse anti-Actin (Sigma-Aldrich); rabbit anti-cleaved Caspase-2 (Abcam); mouse anti-GAPDH, anti-c-Myc, anti-rabbit, anti-proinsulin, and anti-IRE1α (Santa Cruz Biotechnology); anti-phospho-IRE1α and anti-full length Caspase-2 (Novus Biologicals); and rabbit anti-Caspase-3, anti-JNK, anti-eIF2a, anti-phospho-eIF2a, and mouse anti-phospho-JNK (Cell Signaling). Antibody binding was detected by using near-infrared-dye-conjugated secondary antibodies (Licor) on the LI-COR Odyssey scanner or visualized by capturing on a CL-XPosure film using ECL SuperSignal West Dura Extended Duration Substrate (both from Thermo Scientific).
On the technique in general: Immunoblotting shows a protein as a band on a membrane.

The next assay concerns IRE1α (WT). Nature of the assay: Dox-induced IRE1α (WT) hyperactivation in INS-1 stable lines. Conditions: STF-083010 at 50 µM. The text has this: These aforementioned terminal UPR signaling events can be completely mimicked simply by controlled over-expression of IRE1α, in the complete absence of upstream ER stress. Tetracycline-inducible isogenic INS-1 stable cell lines expressing WT IRE1α were generated. Induced with doxycycline (dox) the transgenic IRE1α proteins oligomerize, spontaneously trans-autophosphorylate and trigger XBP1 mRNA splicing. The transgenic systems are finely tuneable, with increasing [Dox] causing progressively greater IRE1α induction (the transgenic IRE1α protein is Myc-tagged). Phospho/Myc IRE1α ratios are finely controllable (and measureable) with increasing [Dox], as is XBP1 mRNA splicing. […] These include reduction of miR-17 and Ins1 mRNA, induction of CHOP mRNA, induction and proteolytic cleavage of caspases 1,2, and 3, and apoptosis as measured by Annexin-V staining. […]
For protein analysis, cells were lysed in M-PER buffer (Thermo Scientific) plus complete EDTA-free protease inhibitor (Roche) and phosphatase inhibitor cocktail (Sigma). The concentration of samples was determined using BCA Protein Assay (Thermo). […] Antibody binding was detected by using near-infrared-dye-conjugated secondary antibodies (Licor) on the LI-COR Odyssey scanner or visualized by capturing on a CL-XPosure film using ECL SuperSignal West Dura Extended Duration Substrate (both from Thermo Scientific).

Another assay deals with INS-1 cells. Nature of the assay: Annexin V apoptosis of INS-1 cells under ER stress. Here is the method: FIGS. 19A-19D. KIRA6 inhibits Terminal UPR outputs of IRE1α to protect against ER stress-induced apoptosis. […] (FIG. 19B) Q-PCR for Ins1 mRNA in INS-1 IRE1α (WT) cells treated with Dox (5 ng/ml)−/+STF-083010 (50 M) over the indicated timecourse. (FIG. 19C) Annexin V staining of INS-1 cells after 72 hr with indicated [Tm]−/+STF-083010 (50 M). (FIG. 19D) Annexin V staining of INS-1 cells after 72 hr with Tm (0.2 μg/ml), STF-083010 (1 or 5 M), and KIRA6 (0.05 M) as indicated. Data plotted as mean+/−SD. P-values: *<0.05, **<0.01, ***<0.005.
For assaying apoptosis by Annexin V staining, cells were plated in 12-well plates overnight. Cells were then treated with various reagents for indicated time periods. On the day of flow cytometry analysis, cells were trypsinized and washed in PBS and resuspended in Annexin V binding buffer with Annexin-V FITC (BD Pharmingen™). Flow cytometry was performed on a Becton Dickinson LSRII flow cytometer.

Assay [2] relates to endogenous IRE1α. Description: XBP1 mRNA splicing in INS-1 cells under ER stress. Particulars: thapsigargin (Tg) 6 nM. The protocol: as §1, §2

Molecules are shown by their SMILES.

As to `O=S(=O)(N=Cc1c(O)ccc2ccccc12)c1cccs1` [STF-083010, N-[(2-Hydroxy-1-naphthalenyl)methylene]-2-thiophenesulfonamide, reference compound], the “endogenous IRE1α auto-phosphorylation in INS-1 cells” value in the assay with endogenous IRE1α [1] is “does not prevent IRE1α auto-phosphorylation”; in the assay with endogenous IRE1α [1] (listed as STF) it was “does not inhibit IRE1α auto-phosphorylation”. Also, in the assay on IRE1α (WT), the “Ins1 mRNA decay under IRE1α hyperactivation” value is reported as “decreases Ins1 mRNA decay under IRE1α hyperactivation”. Besides, the “cytoprotection under Tm, single agent at the dose of the combination” value in the assay with INS-1 cells (STF-083010 1 M or KIRA6 50 nM alone) is “sub-therapeutic individually”. For the same compound, the “apoptosis by Tm” value with INS-1 cells (STF-083010 at 50 µM) is listed as “decreases”. Further, the “XBP1 mRNA splicing (IRE1α RNase activity) in INS-1 cells” value with endogenous IRE1α [2] is on record as “inhibits XBP1 splicing in a dose-dependent manner”.
